Assays:
[1] = Teicoplanin plasma trough levels (TCtrough) from therapeutic drug monitoring during ECMO support; type: in vivo, human
Text: This single-center retrospective study included critically ill, adult (> 18 years old) patients hospitalized at the tertiary intensive care unit (ICU) of the University Hospital Zurich, Switzerland, an academic teaching hospital. The local ICU provides care for patients from all medical and surgical fields. All patients undergoing extracorporeal membrane oxygenation (ECMO) support and intravenous teicoplanin treatment were eligible for study inclusion from 1.1.2010 to 19.07.2023. Patients were included irrespective of the admitting diagnosis and independent of the ECMO configuration (veno-venous, veno-arterial or others with, e.g., multiple cannulation sites). Patients aged < 18 years were excluded. Other exclusion criteria were documented verbal or written refusal to participate in this study. Patients were also excluded if teicoplanin was not administered for any portion of the ECMO treatment period (e.g., if given only before or after the ECMO treatment period) or if no trough levels were obtained during ECMO support.
Data were collected with the use of two in-hospital electronic medical records databases, the KISIM (Cistec AG, Zurich, Switzerland) and the Patient Data Management System (PDMS) MetaVision (iMDsoft, Dusseldorf, Germany). Collected data included baseline demographic data (including age, gender and body mass index), comorbidities (including cardiovascular conditions, pulmonary diseases, renal insufficiency) and immunosuppression (including patients with prior organ transplantation), ICU admitting diagnoses, and the indication for teicoplanin treatment (empiric vs. targeted). Moreover, ICU treatment modalities and scores (e.g., organ support and scores such as the Sequential Organ Failure Assessment Score SOFA and the Simplified Acute Physiology Score SAPS II) and patient outcomes (including ICU length of stay and survival) were gathered. Teicoplanin trough levels and dosages over time were obtained from the medical records (see below).
In our hospital, intravenous teicoplanin is normally administered for empiric or targeted coverage of Gram-positive microorganisms. The standard loading dose is 400 mg infused at 0 h, 12 h and 24 h. Thereafter, 400 mg are administered every 24 h. Measurement of teicoplanin trough levels (TCtrough) is recommended prior to the fifth dose and this also applies to dose adjustments. In case of renal impairment, TCtrough levels are recommended to be measured prior to the second dose, in order to detect potential overdosing early. If the estimated glomerular filtration rate (eGFR) is subnormal, teicoplanin starting dosage is adjusted (eGFR 40–60 ml/min: 200 mg/24 h, eGFR < 40 ml/min: 100 mg/24 h).
In case the patient is undergoing continuous renal replacement therapy, 200–400 mg teicoplanin every 24 h are recommended. In general, TCtrough of 10–30 mg/l are targeted. TCtrough < 10 mg/l are considered insufficient, whereas TCtrough > 30 mg/l are considered toxic. In case TCtrough are not within the target ranges, dose adaptations can be prescribed by the clinicians in charge. In case a measured TCtrough is toxic (i.e., > 30 mg/l), no more teicoplanin is administered, however TCtrough are measured on a daily basis. […] After increasing the dose, subsequent teicoplanin levels are again measured prior to the fifth dose or prior to the second dose in case of renal impairment, respectively. […]

[2] = cited from earlier work
Text: Recently, more attention has been drawn to antimicrobial serum levels and dosing in patients receiving ECMO treatment. While marked concentration variability during ECMO treatment has been observed for many common antimicrobials used in the ICU including meropenem, cefepime, ceftriaxone, piperacillin or vancomycin [14], data for teicoplanin are scarce so far.

[3] = human, in vivo; cited from earlier work
Description: Chen et al. focused on the effect of applying high loading doses in 11 patients receiving veno-arterial ECMO treatment. In their study, four loading doses greater than 10 mg/kg were applied within the first 72 h. Before the application of the maintenance dose, the authors reported adequate therapeutic TCtrough for severe infections in more than 90% of patients. In our study, the loading dose of 400 mg was markedly lower, which presumably might have contributed to our observed low TCtrough in a significant proportion of patients particularly during the first days of ECMO su ...

[4] = Adverse reactions to teicoplanin in critically ill patients on ECMO; type: in vivo, human; settings: all 23 included patients on ECMO, i.v. teicoplanin
Text: The primary outcome of this study was the proportion of patients with insufficient or toxic TCtrough during ECMO support. Secondary outcomes included the observed TCtrough and teicoplanin dosages over time during ECMO support and dependent on the presence of continuous renal replacement therapy (CRRT), as well as the occurrence of side effects (such as hemotoxicity, hepatotoxicity or skin changes) leading to discontinuation of teicoplanin treatment.

TCtrough mean difference, ECMO alone vs ECMO and CRRT ([1]; 95% CI 6–13, p < 0.0001): 9 mg/L
Influence of ECMO circuit configuration (veno-venous vs. veno-arterial) on TCtrough over time ([1]; Fig. 3): did not have a significant influence
TCtrough in patients with ECMO and CRRT ([1]; critically ill adult ICU patients, i.v. teicoplanin, plasma trough level, ECMO plus continuous renal replacement therapy, median [IQR 5–16]): 9 mg/L
TCtrough in patients with ECMO treatment alone ([1]; critically ill adult ICU patients, i.v. teicoplanin, plasma trough level, ECMO without CRRT, median [IQR 12–24 mg/l]): 18 mg/L
TCtrough mean difference in relation to oxygenator changes (pre vs. post) ([1]; five cases with available data, 95% CI –12 to 15, p = 0.8108): 1.5 mg/L
Substance: Teicoplanin
Loss of teicoplanin within the ECMO circuit ([2]; ex vivo blood-primed ECMO circuits): significant loss of teicoplanin
Lowering of central volume of distribution with ECMO treatment ([2]; population pharmacokinetic model, 10 adult ECMO patients): 34%
Proportion of patients with adequate therapeutic TCtrough for severe infections before the maintenance dose [3]: more than 90%
Drug reactions or other adverse reactions to teicoplanin [4]: no drug reactions or other adverse reactions to teicoplanin were observed

Reference: article PMC11845331, “Teicoplanin pharmacokinetics in critically ill patients on extracorporeal organ support: a retrospective analysis” (Intensive Care Medicine Experimental, 2025)
